Assays:
[1] = test system: rat model of ferric chloride-induced carotid thrombosis; assay: Rat model of ferric chloride-induced carotid thrombosis; assay type: in vivo; conditions: 0.3, 1, 3 mg/kg oral
Experimental: The evaluation of the antithrombotic effect was performed according to the method described in Test Example 3 of WO2010/113022. Specifically, two hours before the procedure, the present compound suspended in a 0.5% sodium carboxymethylcellulose (CMC-Na) aqueous solution was orally administered to test groups of rats at dosages of 0.3, 1, and 3 mg/kg. […] Under anesthesia, ferric chloride was applied to a carotid artery of each rat to induce thrombus formation by damaging the blood vessel, and the time from thrombus formation to occlusion of the carotid artery (occlusion time) up to 30 minutes was measured with a Doppler blood flowmeter. Occlusion of the blood flow was defined as a state in which the average blood flow indicated zero on the chart.
The bleeding effect was also evaluated by measuring the bleeding time. The bleeding time was measured in the same rats as above by sticking the tail of each rat with an animal lancet 20 minutes after the ferric chloride treatment and then observing the presence or absence of blood adhered to filter paper every 30 seconds. The time until bleeding stopped (bleeding time) was used as an index of bleeding.

rats = assay: 4-week repeated oral dose toxicity study in rats; assay type: in vivo
[2] = test system: Salmonella typhimurium TA100, TA1535, TA98, TA1537 and Escherichia coli WP2uvrA; assay: Mutagenicity study using bacteria (pre-incubation method); assay type: cell-based; conditions: five strains; metabolic activation method and direct method
Experimental: The gene mutagenicity by the present compound was examined using bacteria.
A study was conducted in the presence of a metabolic activator (hereinafter referred to as a “metabolic activation method”) and in the absence of a metabolic activator (hereinafter referred to as a “direct method”) by a pre-incubation method, using three strains, i.e., Salmonella typhimurium TA100 and TA1535, and Escherichia coli WP2uvrA, to detect base pair substitution gene mutations, and two strains, i.e., Salmonella typhimurium TA98 and TA1537, to detect frameshift gene mutations.

CHL/IU cells = assay: Chromosomal abnormality study; assay type: cell-based, Chinese hamster; conditions: with and without S9 mix
Experimental: A study on the clastogenic property of the present compound was performed in the presence of a drug metabolism-activating enzyme (S9 mix) (hereinafter referred to as a “metabolic activation method”) and in the absence of a drug metabolism-activating enzyme (S9 mix) (hereinafter referred to as a “direct method”) using mammalian cultured cells (Chinese hamster cultured cells (CHL/IU cells)).

[3] = design: species or system human; conditions: in vivo, po
Experimental: A placebo-controlled single oral dose study was performed to examine the safety and pharmacokinetics upon single oral dose administration of the present compound in healthy Japanese adult males (subjects).
The oral dosages were 30 mg (step 1), 60 mg (step 2), 120 mg (step 3), and 240 mg (step 5) per day, and the food effect was separately examined in administration at a dosage of 60 mg (step 4) (a total of five steps). In steps 1 to 3 and 5, the number of subjects per step was 8 (6 subjects in the present compound administration group and 2 subjects in the placebo group), of which 1 subject of the present compound administration group and 1 subject of the placebo group were used as the preceding group, and 5 subjects of the present compound administration group and 1 subject of the placebo group were used as the following group. The study proceeds to the following group after confirming safety in the preceding group. The transition from one step to the next was made after confirming safety. In step 4, which examines the food effect, the present compound was orally administered to all 6 subjects. […]
After administration of the present compound and the placebo, the following items were evaluated in each subject. […]

[4] = human, in vivo
Experimental: A placebo-controlled repeated oral dose study was performed to examine the safety, pharmacokinetics, and pharmacodynamics of the present compound during repeated oral dose administration in healthy Japanese adult males (subjects).
The oral dosages were 60 mg (step 1) and 120 mg (step 2) per day, and the number of subjects per step was 9 (6 subjects in the present compound group and 3 subjects in the placebo group). The transition from one step to the next was made after confirming safety. The present compound or the placebo was orally administered once daily after breakfast for 7 days.
After administration of the present compound and the placebo, the following items were evaluated in each subject. Safety: vital signs (axillary temperature, blood pressure while seated, and pulse rate while seated), 12-lead electrocardiogram, laboratory tests (hematological test, blood biochemical test, blood coagulation test, urinalysis, and fecal test), and adverse events • Pharmacokinetics: plasma concentration of the unchanged drug and metabolite concentration • Pharmacological activities: PAI-1 activity and t-PA activity

PAI-1 = biological target: T1, PAI-1 (Homo sapiens, UniProt P05121); assay: PAI-1 activity in blood, phase I repeated oral dose study; assay type: in vivo
T1 construct: from tissue; host or cells: plasma of human subjects (phase I study)
Experimental: The pharmacological activities (PAI-1 activity and t-PA activity) were evaluated using blood collected from the subjects before and after administration of the present compound or the placebo as test samples. Blood was collected before administration and 2, 4, and 8 hours after administration on the first day of the experiment (day 1) and day 7 after the start of the experiment, and on the other days, blood was collected once a day before administration (only before administration on days 2 to 6, day 8, and day 11 after the start of administration).
After collecting blood samples from the subjects, the samples were treated with 3.2% citric acid salt and centrifuged at 4° C., 1,800 g for 10 minutes to obtain plasma. The collected plasma was used for measurement of PAI-1 activity and stored frozen at -80° C. or less until measurement.
The PAI-1 activity was measured using a human PAI-1 activity assay kit (produced by Molecular Innovations Inc.). In this system, a plasma sample collected from a subject is placed on a plate coated with urokinase plasminogen activator (uPA), PAI-1 in the sample is reacted with uPA, and then active PAI-1 bound to uPA is measured as PAI-1 activity using an antigen-antibody reaction with an anti-PAI-1 antibody by measuring the absorbance at a wavelength of 450 nm with a plate reader.

[5] = 30, 60, 120, 250 mg/kg/day oral, 4 weeks

T1 sequence (P05121 24-402): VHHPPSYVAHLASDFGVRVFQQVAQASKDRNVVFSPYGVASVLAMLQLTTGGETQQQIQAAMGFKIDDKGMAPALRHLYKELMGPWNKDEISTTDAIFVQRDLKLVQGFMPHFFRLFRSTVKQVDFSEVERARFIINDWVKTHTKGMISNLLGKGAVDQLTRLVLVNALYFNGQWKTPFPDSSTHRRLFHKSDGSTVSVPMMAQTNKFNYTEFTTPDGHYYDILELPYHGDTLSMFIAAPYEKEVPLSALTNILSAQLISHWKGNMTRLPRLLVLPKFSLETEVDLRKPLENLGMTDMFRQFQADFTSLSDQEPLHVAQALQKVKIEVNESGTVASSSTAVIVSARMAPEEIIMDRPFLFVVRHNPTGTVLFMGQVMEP

O=C(Nc1ccc(Cl)cc1C(=O)[O-])c1cccc(-c2cccc3cccnc23)c1.[Na+] [present compound, sodium 5-chloro-2-({ [3-(quinolin-8-yl)phenyl]carbonyl}amino)benzoate]
occlusion time ([1]; 2 hours before procedure): prolongs the occlusion time in a dose-dependent manner | bleeding time vs vehicle group ([1]; tail lancet 20 minutes after ferric chloride): no significant difference | deaths during the administration period (rats; [5]): No deaths | effect on general condition, body weight, food consumption, ophthalmology, ECG, hematology, urinalysis, necropsy, organ weights (rats; [5]): No effect | no-observed-adverse-effect level (rats; rats, males and females, 4-week repeated oral dose): 250 mg/kg/day | mutagenesis effect [2]: no mutagenesis effect | clastogenic effect (CHL/IU cells): no clastogenic effect | AUC versus dosage [3]: linearity | AUC on day 7 compared with day 1 [4]: increased | Tmax, t½ 0-24h, and Cmax′ [4]: not affected by repeated administration | PAI-1 activity in blood vs placebo (PAI-1; 60 mg/day oral, days 1 and 7): neither PAI-1 activity nor t-PA activity was different | time after administration of maximal decrease in PAI-1 activity (PAI-1; 120 mg/day oral): 8 h | PAI-1 activity in blood (PAI-1; 120 mg/day oral, days 1 and 7): decreased | dosage at which PAI-1 is significantly inhibited and t-PA enhanced in humans (PAI-1; oral): at least 120 mg per day

From patent US20230355605A1, “DRUG FOR ENHANCING FIBRINOLYTIC SYSTEM, AND USE THEREFOR” (priority 2020, published 2023)
